Measurements as given in patent US20220324815A1, “2-PHENOXY-PYRIMIDINE DERIVATIVES AS HERBICIDAL COMPOUNDS” (SYNGENTA CROP PROTECTION AG, priority 2019, published 2022).

Tests used:
Format in all cases: in vivo
Details in all cases: 250 g/ha unless otherwise stated, evaluated after 13 days, five-point scale
Setaria faberi (SETFA) [1] = experiment: Test 1 glasshouse herbicide test, post-emergence application (Table B1)
Protocol: (§1) Seeds of a variety of test species are sown in standard soil in pots (Lolium perenne (LOLPE), Solanum nigrum (SOLNI), Amaranthus retoflexus (AMARE), Setaria faberi (SETFA), Echinochloa crus-galli (ECHCG) and Ipomoea hederacea (IPOHE)). After cultivation for one day (pre-emergence) or after 8 days cultivation (post-emergence) under controlled conditions in a glasshouse (at 24/16° C., day/night; 14 hours light; 65% humidity), the plants are sprayed with an aqueous spray solution derived from the formulation of the technical active ingredient in acetone/water (50:50) solution containing 0.5% Tween 20 (polyoxyethelyene sorbitan monolaurate, CAS RN 9005-64-5). Compounds are applied at 250 g/ha unless otherwise stated. The test plants are then grown in a glasshouse under controlled conditions in a glasshouse (at 24/16° C., day/night; 14 hours light; 65% humidity) and watered twice daily. After 13 days for pre and post-emergence, the test is evaluated for the percentage damage caused to the plant. The biological activities (% phytotoxicity) are shown in Tables B1 and B2 below using a five-point scale (5=81 to 100%; 4=61 to 80%; 3=41 to 60%; 2=21 to 40%; 1=0 to 20%).

[2] = tested on: Amaranthus retoflexus (AMARE); experiment: as above
Protocol: as §1

[3] = tested on: Echinochloa crus-galli (ECHCG); experiment: as above
Protocol: as §1

[4] = tested on: Ipomoea hederacea (IPOHE); experiment: as above
Protocol: as §1

Setaria faberi (SETFA) [5] = experiment: Test 1 glasshouse herbicide test, pre-emergence application (Table B2)
Protocol: as §1

[6] = tested on: Amaranthus retoflexus (AMARE); experiment: as above
Protocol: as §1

[7] = tested on: Echinochloa crus-galli (ECHCG); experiment: as above
Protocol: as §1

[8] = tested on: Ipomoea hederacea (IPOHE); experiment: as above
Protocol: as §1

Row | SMILES | % phytotoxicity SETFA, post-emergence application (Setaria faberi (SETFA) [1]) | % phytotoxicity AMARE, post-emergence application [2] | % phytotoxicity ECHCG, post-emergence application [3] | % phytotoxicity IPOHE, post-emergence application [4] | % phytotoxicity SETFA, pre-emergence application (Setaria faberi (SETFA) [5]) | % phytotoxicity AMARE, pre-emergence application [6] | % phytotoxicity ECHCG, pre-emergence application [7] | % phytotoxicity IPOHE, pre-emergence application [8]
1 | CCCS(=O)(=O)c1ccccc1Oc1ncc(Cl)cn1 [Compound A50] | 1 (1=0 to 20%) | 4 (4=61 to 80%) | 1 (1=0 to 20%) | 2 (2=21 to 40%) | 5 (5=81 to 100%) | 5 (5=81 to 100%) | 4 (4=61 to 80%) | 2 (2=21 to 40%)
2 | CCC(CC)CSc1ccccc1Oc1ncc(Cl)cn1 [Compound A64] | 2 (2=21 to 40%) | 2 (2=21 to 40%) | 1 (1=0 to 20%) | 2 (2=21 to 40%) | 1 (1=0 to 20%) | 1 (1=0 to 20%) | 1 (1=0 to 20%) | 1 (1=0 to 20%)
3 | CCCC[S+]([O-])c1ccccc1Oc1ncc(Cl)cn1 (stereo not shown) [Compound A22] | 4 (4=61 to 80%) | 3 (3=41 to 60%) | 4 (4=61 to 80%) | 2 (2=21 to 40%) | 5 (5=81 to 100%) | 4 (4=61 to 80%) | 5 (5=81 to 100%) | 5 (5=81 to 100%)
4 | FC(F)CSc1ccccc1Oc1ncc(Cl)cn1 [Compound A61] | 2 (2=21 to 40%) | 5 (5=81 to 100%) | 2 (2=21 to 40%) | 2 (2=21 to 40%) | 4 (4=61 to 80%) | 5 (5=81 to 100%) | 3 (3=41 to 60%) | 2 (2=21 to 40%)
5 | CCC(CC)CS(=O)(=O)c1ccccc1Oc1ncc(Cl)cn1 [Compound A87] | 1 (1=0 to 20%) | 1 (1=0 to 20%) | 1 (1=0 to 20%) | 1 (1=0 to 20%) | 1 (1=0 to 20%) | 1 (1=0 to 20%) | 1 (1=0 to 20%) | 1 (1=0 to 20%)
6 | COc1cnc(Oc2cccc(C#N)c2SCCCC(F)(F)F)nc1 [Compound A113] | 2 (2=21 to 40%) | 5 (5=81 to 100%) | 3 (3=41 to 60%) | 3 (3=41 to 60%) | 2 (2=21 to 40%) | 5 (5=81 to 100%) | 4 (4=61 to 80%) | 3 (3=41 to 60%)
7 | O=S(=O)(CC(F)(F)F)c1ccccc1Oc1ncc(Cl)cn1 [Compound A78] |  |  |  |  | 1 (1=0 to 20%) | 3 (3=41 to 60%) | 1 (1=0 to 20%) | 1 (1=0 to 20%)
